Earlier results as cited in patent US6444675B2, “4-alkyl and 4-cycloalkyl derivatives of dihydropyridine NPY antagonists” (Bristol-Myers Squibb Company, priority 2000, dated 2002).
Each block holds one compound with its values, some of them ahead of it.

Legend:
[1] = biological target: T1, I-125 Bolton-Hunter labeled NPY in human neuroblastoma cells (SK-N-MC) (Homo sapiens, UniProt P25929)
T1 construct: displaces I-125 Bolton-Hunter labeled NPY in human neuroblastoma cells (SK-N-MC); host or cells: SK-N-MC human neuroblastoma cells (endogenous receptor)
T1 sequence (P25929 1-384): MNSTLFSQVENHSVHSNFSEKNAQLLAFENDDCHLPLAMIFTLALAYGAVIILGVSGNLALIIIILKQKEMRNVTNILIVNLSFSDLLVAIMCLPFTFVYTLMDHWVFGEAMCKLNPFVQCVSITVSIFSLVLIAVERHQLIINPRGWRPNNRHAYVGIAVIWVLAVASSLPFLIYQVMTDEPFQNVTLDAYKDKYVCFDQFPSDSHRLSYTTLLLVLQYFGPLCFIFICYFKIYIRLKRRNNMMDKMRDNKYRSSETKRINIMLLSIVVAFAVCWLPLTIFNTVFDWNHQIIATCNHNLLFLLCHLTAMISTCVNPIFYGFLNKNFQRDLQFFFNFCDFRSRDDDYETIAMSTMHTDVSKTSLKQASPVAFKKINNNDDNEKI

[2] = system: NPY-induced pressor response; details: pithed rat
[3] = system: NPY-induced increase in intracellular Ca++ in SK-N-MC cells
[4] = system: NPY-induced contractions in guinea pig basilar artery
[5] = biological target: T2, I-125 labeled NPY and PYY in human neuroblastoma cells (Homo sapiens, UniProt P25929)
T2 construct: displacing I-125 labeled NPY and PYY in human neuroblastoma cells; endogenous receptor
T2 sequence (P25929 1-384): T1 sequence (P25929 1-384)

[6] = system: NPY-related increases in diastolic blood pressure; details: anesthetized guinea pig model

displacement of I-125 Bolton-Hunter labeled NPY [1]: displaces
SMILES: NC(N)=NCCC[C@@H](NC(=O)C(c1ccccc1)c1ccccc1)C(=O)NCc1ccc(O)cc1 [BIBP 3226]
antagonism of NPY-induced pressor response [2]: antagonizing
antagonism of NPY-induced increase in intracellular Ca++ [3]: antagonized

SMILES: O=P(O)(O)OC1[C@H](OP(=O)(O)O)[C@H](O)C(O)[C@H](O)[C@H]1OP(=O)(O)O (stereo partly drawn) [D-Myo-inositol-1,2,6-triphosphate]
antagonism of NPY-induced contractions [4]: potent but non-competitive antagonist

displacement of I-125 labeled NPY and PYY [5]: displacing
SMILES: CN(C)CC1CCC(CN=C(N)c2ccc(C[C@@H](NC(=O)[C@@H](Cc3ccccc3)NS(=O)(=O)c3ccc4ccccc4c3)C(=O)N3CCCC3)cc2)CC1 (stereo partly drawn) [SR 120819A]
antagonism of NPY-related increases in diastolic blood pressure [6]: antagonized
